Test results taken from patent US4428936A, “Antibacterial composition for medical use” (Toyama Chemical Co., Ltd., priority 1978, dated 1984).

Tests used:
[1] = tested on: Klebsiella pneumoniae Y-4; experiment: Growth-inhibition test on clinically isolated strain (agar, about 10^8 cells/ml); format: cell-based; design: key: (+) means that the test bacterium grew; (-) means that the test bacterium did not grow; settings: Methicillin sodium: 3200,1600,800,400,200,100,50,25,12.5,0 μg/ml, 18 hours, 37° C
Description: (§1) Heart Infusion agar containing a prescribed amount of Methicillin sodium or T-1551 Na was inoculated with the test bacterium at a rate of about 10^8 cells/ml. After incubation for 18 hours at 37° C., the growth of the test bacterium was inspected.

[2] = tested on: Pseudomonas aeruginosa S-111; experiment: as above; format: cell-based; design: key: (+) means that the test bacterium grew; (-) means that the test bacterium did not grow; settings: Methicillin sodium 3200,1600,800,400,200,100,50,25,12.5,0 μg/ml, 18 hours, 37° C
Description: as §1

Escherichia coli TK-3 [3] = experiment: as above; format: cell-based; design: key: (+) means that the test bacterium grew; (-) means that the test bacterium did not grow; settings: Methicillin sodium: 3200,1600,800,400,200,100,50,25,12.5,0 μg/ml, 18 hours, 37° C
Description: as §1

[4] = tested on: Klebsiella pneumoniae GN 69; experiment: Growth-inhibition test with potassium clavulanate; format: cell-based; design: key: (+) means that the test bacterium grew; (-) means that the test bacterium did not grow; settings: potassium clavulanate 100,25,6.25,1.6,0.4,0 μg/ml
Description: as §1
(§2) The same operation as in Test Example 1 was repeated, except that the Methicillin sodium was replaced by potassium clavulanate and the test bacteria were replaced by those shown in Tables 6, 7 and 8, to obtain the results shown in Tables 6, 7 and 8.

Escherichia coli GN 6299 = experiment: Growth-inhibition test with potassium clavulanate; format: cell-based; design: key: (+) means that the test bacterium grew; (-) means that the test bacterium did not grow; settings: potassium clavulanate by line b171,b173-b182: 100,(unlabelled),25,(unlabelled),6.25,(unlabelled),1.6,(unlabelled),0.4,(unlabelled),0 μg/ml
Description: as §1, §2

[5] = tested on: Pseudomonas aeruginosa GN 3345; experiment: Growth-inhibition test with potassium clavulanate; format: cell-based; design: key: (+) means that the test bacterium grew; (-) means that the test bacterium did not grow; settings: potassium clavulanate by line b219-b229: 100,(unlabelled),25,(unlabelled),12.5,(unlabelled),3.1,(unlabelled),0.4,(unlabelled),0 μg/ml
Description: as §1, §2

K. pneumoniae Y-53 = experiment: Effect of combined use on experimental infection in mice (protection); format: in vivo, mice (ICR strain) infected with K. pneumoniae; settings: challenge dose 1.0 × 10^7 cells/mouse, peritoneal; subcutaneous administration one and two hours after inoculation
From the text: (§3) Male mice (5 mice per group) of the ICR strain, 4 weeks of age, were peritoneally inoculated with the prescribed number of pathogenic bacteria suspended in 5% mucin. After one hour and two hours following the inoculation, test preparations shown in Table 5 were subcuataneously administered to examine the protection effect.

K. pneumoniae Y-4 = experiment: as above; format: in vivo, mice (ICR strain) infected with K. pneumoniae; settings: challenge dose 5.7 × 10^7 cells/mouse, peritoneal; subcutaneous administration one and two hours after inoculation
From the text: as §3

[6] = tested on: Klebsiella pneumoniae Y-4; experiment: Minimum inhibitory concentration; format: cell-based; settings: Y4; Klebsiella pneumoniae Y-4 strain
Description: (§4) The minimum inhibitory concentration of T-1551 Na or Methicillin sodium against Escherichia coli TK-3 strain or Kleosiella pneumoniae Y-4 strain was greater than 800 μg/ml in each case.

Escherichia coli TK-3 [7] = experiment: Minimum inhibitory concentration; format: cell-based; settings: TK3; Escherichia coli TK-3 strain
Description: as §4

[8] = T-1551 Na unlabelled column between 12.5 and 3.1 μg/ml
[9] = T-1551 Na unlabelled column between 50 and 12.5 μg/ml
[10] = T-1551 Na unlabelled column between 200 and 50 μg/ml
[11] = T-1551 Na unlabelled column between 800 and 200 μg/ml

## CCN1CCN(C(=O)N[C@@H](C(=O)N[C@@H]2C(=O)N3C(C(=O)O)=C(CSc4nnnn4C)CS[C@H]23)c2ccc(O)cc2)C(=O)C1=O [T-1551 Na, sodium 7-[D(-)-α-(4-ethyl-2,3-dioxo-1-piperazinylcarbonylamino)-p-hydroxyphenylacetamide]-3-[5-(1-methyl-1,2,3,4-tetrazolyl)thiomethyl]-Δ^3-cephem-4-carboxylate]
[1]; T-1551 Na 0.78 μg/ml
  growth of the test bacterium: +
[1]; T-1551 Na 1.56 μg/ml
  growth of the test bacterium: +
[1]; T-1551 Na 3.13 μg/ml
  growth of the test bacterium: +
[1]; T-1551 Na 6.25 μg/ml
  growth of the test bacterium: +
[1]; T-1551 Na 12.5 μg/ml
  growth of the test bacterium: +
[1]; T-1551 Na 25 μg/ml
  growth of the test bacterium: +
[1]; T-1551 Na 50 μg/ml
  growth of the test bacterium: +
[1]; T-1551 Na 100 μg/ml
  growth of the test bacterium: +
[1]; T-1551 Na 200 μg/ml
  growth of the test bacterium: +
[2]; T-1551 Na 0.78 μg/ml
  growth of the test bacterium: +
[2]; T-1551 Na 1.56 μg/ml
  growth of the test bacterium: +
[2]; T-1551 Na 3.13 μg/ml
  growth of the test bacterium: +
[2]; T-1551 Na 6.25 μg/ml
  growth of the test bacterium: +
[2]; T-1551 Na 12.5 μg/ml
  growth of the test bacterium: +
[2]; T-1551 Na 25 μg/ml
  growth of the test bacterium: +
[2]; T-1551 Na 50 μg/ml
  growth of the test bacterium: +
[2]; T-1551 Na 100 μg/ml
  growth of the test bacterium: +
[2]; T-1551 Na 200 μg/ml
  growth of the test bacterium: +
Escherichia coli TK-3 [3]; T-1551 Na 0.78 μg/ml
  growth of the test bacterium: +
Escherichia coli TK-3 [3]; T-1551 Na 1.56 μg/ml
  growth of the test bacterium: +
Escherichia coli TK-3 [3]; T-1551 Na 3.13 μg/ml
  growth of the test bacterium: +
Escherichia coli TK-3 [3]; T-1551 Na 6.25 μg/ml
  growth of the test bacterium: +
Escherichia coli TK-3 [3]; T-1551 Na 12.5 μg/ml
  growth of the test bacterium: +
Escherichia coli TK-3 [3]; T-1551 Na 25 μg/ml
  growth of the test bacterium: +
Escherichia coli TK-3 [3]; T-1551 Na 50 μg/ml
  growth of the test bacterium: +
Escherichia coli TK-3 [3]; T-1551 Na 100 μg/ml
  growth of the test bacterium: +
Escherichia coli TK-3 [3]; T-1551 Na 200 μg/ml
  growth of the test bacterium: +
[4]; T-1551 Na 0.2 μg/ml
  growth of the test bacterium: +
[4]; T-1551 Na 0.8 μg/ml
  growth of the test bacterium: +
[4]; T-1551 Na 3.1 μg/ml
  growth of the test bacterium: +
[4]; T-1551 Na 12.5 μg/ml
  growth of the test bacterium: +
[4]; T-1551 Na 50 μg/ml
  growth of the test bacterium: +
[4]; T-1551 Na 200 μg/ml
  growth of the test bacterium: +
[4]; T-1551 Na 800 μg/ml
  growth of the test bacterium: -
Escherichia coli GN 6299; T-1551 Na 0.2 μg/ml
  growth of the test bacterium: +
Escherichia coli GN 6299; T-1551 Na 0.8 μg/ml
  growth of the test bacterium: +
Escherichia coli GN 6299; T-1551 Na 3.1 μg/ml
  growth of the test bacterium: +
Escherichia coli GN 6299; T-1551 Na 12.5 μg/ml
  growth of the test bacterium: +
Escherichia coli GN 6299; T-1551 Na 50 μg/ml
  growth of the test bacterium: +
Escherichia coli GN 6299; T-1551 Na 200 μg/ml
  growth of the test bacterium: +
Escherichia coli GN 6299; T-1551 Na 800 μg/ml
  growth of the test bacterium: +
Escherichia coli GN 6299; T-1551 Na unlabelled column between 0.8 and 0.2 μg/ml
  growth of the test bacterium: +
Escherichia coli GN 6299; T-1551 Na unlabelled column between 3.1 and 0.8 μg/ml
  growth of the test bacterium: +
Escherichia coli GN 6299; [8]
  growth of the test bacterium: +
Escherichia coli GN 6299; [9]
  growth of the test bacterium: +
Escherichia coli GN 6299; [10]
  growth of the test bacterium: +
Escherichia coli GN 6299; [11]
  growth of the test bacterium: +
[5]; T-1551 Na 3.1 μg/ml
  growth of the test bacterium: +
[5]; T-1551 Na 12.5 μg/ml
  growth of the test bacterium: +
[5]; T-1551 Na 50 μg/ml
  growth of the test bacterium: +
[5]; T-1551 Na 200 μg/ml
  growth of the test bacterium: +
[5]; T-1551 Na 800 μg/ml
  growth of the test bacterium: -
[5]; [8]
  growth of the test bacterium: +
[5]; [9]
  growth of the test bacterium: +
[5]; [10]
  growth of the test bacterium: +
[5]; [11]
  growth of the test bacterium: -
K. pneumoniae Y-53
  ED50 (protection effect): > 10.0 mg/mouse
K. pneumoniae Y-4
  ED50 (protection effect): > 26.8 mg/mouse
[6]
  MIC: > 800 µg/mL
Escherichia coli TK-3 [7]
  MIC: > 800 µg/mL
